The values below come from ChEMBL document CHEMBL1121707, “Synthesis of 2'-deoxy-L-fucopyranosylcarminomycinone and -epsilon-pyrromycinone as well as 2'-deoxy-D-erythro-pentopyranosyldaunomycinone, -carminomycinone, and -epsilon-pyrromycinone” (1981).

Experiment [1] deals with L1210. The experiment in a line: Median survival time of treated to that of control after administration at 6.4 mg/kg intraperitoneally in BDF1 mice on day 1 in experiment 1. It is filed as functional, Mus musculus. To be noted: route intraperitoneal.
In experiment [2] the test system is Bacillus subtilis. Description: Tested for antibacterial effect against Bacillus subtilis-8 at dose 6.25 ug/mL. It is filed as functional.
In experiment [3] the test system is L1210. Description: Average weight change after administration at 0.8 mg/kg intraperitoneally in mice on day 1 in experiment 1. As to conditions: route intraperitoneal. The format is functional, Mus musculus.
The subject of experiment [4] is L1210. Description: Tested for survivors on day 5 after administration at 12.8 mg/kg intraperitoneally in mice on day 1 in experiment 1. The format is functional, Mus musculus. As to conditions: route intraperitoneal.
Experiment [5] has as its system L1210. The experiment in a line: Tested for survivors on day 5 after administration at 6.4 mg/kg intraperitoneally in mice on day 1 in experiment 1. The format is functional, Mus musculus. As to conditions: route intraperitoneal.
For experiment [6], the system named is L1210. Description: Average weight change after administration at 6.4 mg/kg intraperitoneally in mice on day 1 in experiment 1. As to conditions: route intraperitoneal. It is filed as functional, Mus musculus.
For experiment [7], the system named is P388. Description: Average weight change after administration at 3.13 mg/kg intraperitoneally in mice. The format is functional, Mus musculus. As to conditions: route intraperitoneal.
Experiment [8] has as its system L1210. The experiment in a line: Average weight change after administration at 12.8 mg/kg intraperitoneally in mice on day 1 in experiment 1. The format is functional, Mus musculus. As to conditions: route intraperitoneal.
Experiment [9] relates to P388. Description: Average weight change after administration on every 4th day at 50 mg/kg intraperitoneally in mice. The format is functional, Mus musculus. To be noted: route intraperitoneal.
The subject of experiment [10] is P388. The experiment in a line: Tested for survivors on day 5 after administration on every 4th day at 50 mg/kg intraperitoneally in mice. As to conditions: route intraperitoneal. The format is functional, Mus musculus.
The subject of experiment [11] is L1210. The experiment in a line: Median survival time of treated to that of control after administration at 3.2 mg/kg intraperitoneally in BDF1 mice on day 1 in experiment 1. The format is functional, Mus musculus. As to conditions: route intraperitoneal.
Experiment [12] deals with L1210. The experiment in a line: Average weight change after administration at 3.2 mg/kg intraperitoneally in mice on day 1 in experiment 1. It is filed as functional, Mus musculus. To be noted: route intraperitoneal.
Experiment [13] has as its system P388. Description: Median survival time of treated to that of control after administration on every 4th day at 25 mg/kg intraperitoneally in BDF1 mice. It is filed as functional, Mus musculus. As to conditions: route intraperitoneal.
The test system of experiment [14] is P388. Description: Median survival time of treated to that of control after administration on every 4th day at 6.25 mg/kg intraperitoneally in BDF1 mice. The format is functional, Mus musculus. As to conditions: route intraperitoneal.
Experiment [15] relates to P388. The experiment in a line: Average weight change after administration on every 4th day at 25 mg/kg intraperitoneally in mice. It is filed as functional, Mus musculus. To be noted: route intraperitoneal.
For experiment [16], the system named is L1210. Description: Median survival time of treated to that of control after administration at 0.8 mg/kg intraperitoneally in BDF1 mice on day 1 in experiment 1. As to conditions: route intraperitoneal. It is filed as functional, Mus musculus.
Experiment [17] deals with Bacillus subtilis. Description: Tested for antibacterial effect against Bacillus subtilis-8 at dose 50 ug/mL. The format is functional.
Experiment [18] concerns P388. Description: Average weight change after administration on every 4th day at 6.25 mg/kg intraperitoneally in mice. The format is functional, Mus musculus. As to conditions: route intraperitoneal.
For experiment [19], the system named is L1210. The experiment in a line: Tested for survivors on day 5 after administration at 1.6 mg/kg intraperitoneally in mice on day 1 in experiment 1. The format is functional, Mus musculus. As to conditions: route intraperitoneal.
Experiment [20] concerns L1210. Description: Tested for survivors on day 5 after administration at 0.8 mg/kg intraperitoneally in mice on day 1 in experiment 1. It is filed as functional, Mus musculus. As to conditions: route intraperitoneal.
Experiment [21] relates to P388. The experiment in a line: Tested for survivors on day 5 after administration on every 4th day at 3.13 mg/kg intraperitoneally in mice. It is filed as functional, Mus musculus. As to conditions: route intraperitoneal.
Experiment [22] concerns Bacillus subtilis. Description: Tested for antibacterial effect against Bacillus subtilis-8 at dose 12.5 ug/mL. It is filed as functional.
The subject of experiment [23] is L1210. Description: Tested for survivors on day 5 after administration at 0.4 mg/kg intraperitoneally in mice on day 1 in experiment 1. It is filed as functional, Mus musculus. To be noted: route intraperitoneal.
Experiment [24] has as its system L1210. The experiment in a line: Median survival time of treated to that of control after administration at 1.6 mg/kg intraperitoneally in BDF1 mice on day 1 in experiment 1. It is filed as functional, Mus musculus. As to conditions: route intraperitoneal.
For experiment [25], the system named is L1210. The experiment in a line: Average weight change after administration at 0.4 mg/kg intraperitoneally in mice on day 1 in experiment 1. It is filed as functional, Mus musculus. As to conditions: route intraperitoneal.
Experiment [26] relates to P388. The experiment in a line: Tested for survivors on day 5 after administration on every 4th day at 6.25 mg/kg intraperitoneally in mice. It is filed as functional, Mus musculus. As to conditions: route intraperitoneal.
Experiment [27] relates to P388. The experiment in a line: Tested for survivors on day 5 after administration at 12.5 mg/kg intraperitoneally in mice on day 1 in experiment 2. It is filed as functional, Mus musculus. To be noted: route intraperitoneal.
In experiment [28] the test system is L1210. Description: Average weight change after administration at 1.6 mg/kg intraperitoneally in mice on day 1 in experiment 1. The format is functional, Mus musculus. To be noted: route intraperitoneal.
The subject of experiment [29] is Bacillus subtilis. The experiment in a line: Tested for antibacterial effect against Bacillus subtilis-8 at dose 25 ug/mL. It is filed as functional.
Experiment [30] deals with P388. The experiment in a line: Median survival time of treated to that of control after administration at 3.13 mg/kg intraperitoneally in BDF1 mice. It is filed as functional, Mus musculus. To be noted: route intraperitoneal.
Experiment [31] deals with L1210. Description: Median survival time of treated to that of control after administration at 12.8 mg/kg intraperitoneally in BDF1 mice on day 1 in experiment 1. To be noted: route intraperitoneal. It is filed as functional, Mus musculus.
Experiment [32] concerns P388. The experiment in a line: Tested for survivors on day 5 after administration on every 4th day at 25 mg/kg intraperitoneally in mice. To be noted: route intraperitoneal. It is filed as functional, Mus musculus.
In experiment [33] the test system is P388. The experiment in a line: Median survival time of treated to that of control after administration on every 4th day at 50 mg/kg intraperitoneally in BDF1 mice. It is filed as functional, Mus musculus. To be noted: route intraperitoneal.
Experiment [34] deals with P388. The experiment in a line: Median survival time of treated to that of control after administration on every 4th day at 12.5 mg/kg intraperitoneally in BDF1 mice. It is filed as functional, Mus musculus. To be noted: route intraperitoneal.
Experiment [35] relates to L1210. The experiment in a line: Tested for survivors on day 5 after administration at 3.2 mg/kg intraperitoneally in mice on day 1 in experiment 1. It is filed as functional, Mus musculus. To be noted: route intraperitoneal.
In experiment [36] the test system is P388. Description: Average weight change after administration on every 4th day at 12.5 mg/kg intraperitoneally in mice. The format is functional, Mus musculus. As to conditions: route intraperitoneal.
Experiment [37] has as its system L1210. Description: Median survival time of treated to that of control after administration at 0.4 mg/kg intraperitoneally in BDF1 mice on day 1 in experiment 1. As to conditions: route intraperitoneal. The format is functional, Mus musculus.
The test system of experiment [38] is Bacillus subtilis. Description: Tested for antibiotic activity against Bacillus subtilis-ATTCC 6633 at dose 12.5 ug/mL via plate assay. It is filed as functional.

For `COc1cccc2c1C(=O)c1c(O)c3c(c(O)c1C2=O)C[C@@](O)(C(C)=O)C[C@@H]3O[C@H]1C[C@H](O)[C@H](O)CO1`, the T/C in experiment [1] is recorded as 93%; in experiment [11], 100%; in experiment [13] it was 110%; in experiment [14], 100%; in experiment [16], 100%; in experiment [24], 86%. For the same compound, the T/C in experiment [30] was found to be 100%; in experiment [31] it was 107%; in experiment [33], 110%; in experiment [34] it was 112%; in [37] it was 100%. The Inhibition zone was 10 mm in experiment [2], 18.8 mm in experiment [17], 12.5 mm in experiment [22] and 15.8 mm in [29]. Further, the Average weight change was 1.8 in experiment [3]; 2.4 in experiment [6]; -2 in [7]; 2.3 in experiment [8]; 0.2 in experiment [9]; 0.2 in experiment [12]. The Average weight change is recorded as -0.5 in experiment [15]; -1.2 in experiment [18]; 1.5 in [25]; 2.6 in [28]; -1.3 in experiment [36]. Further, the Survivors in [4], in [5], in [10], in [19], in experiment [20] and in experiment [21] was 6 throughout. The Survivors in experiment [23], in experiment [26], in experiment [27], in experiment [32] and in experiment [35] was 6 each time.
Regarding `CC(=O)[C@]1(O)Cc2c(O)c3c(c(O)c2C(O)C1)C(=O)c1c(O)cccc1C3=O` (stereo partly drawn) [CARMINOMYCINONE], the Inhibition zone in experiment [38] was found to be 20.2 mm.

By T/C is commonly meant the ratio of treated to control.
